The NIST ThermoML archive (doi:10.1016/j.fluid.2015.08.007)
Values joined by “and” are separate entries in the source; they are usually repeats but may differ in a detail not shown here. Identical values can stand only once. ± gives the expanded uncertainty stated by the source.

Conditions: Crystal 1; DTA

Structure (SMILES) | Normal melting temperature [°C]
CCCC[N+]1(C)CCCC1.[Br-] [1-butyl-1-methylpyrrolidinium bromide] | 204 ± 2

Same assay, conditions: Crystal; DTA

Structure (SMILES) | Normal melting temperature
CC[N+]1(C)CCCC1.O=S(=O)([N-]S(=O)(=O)C(F)(F)F)C(F)(F)F | 91 ± 2 °C
CCCC[N+]1(C)CCCC1.[Br-] [1-butyl-1-methylpyrrolidinium bromide] | 204 ± 2 °C
CCCC[N+]1(C)CCCC1.[Cl-] [1-butyl-1-methylpyrrolidinium chloride] | 201 ± 2 °C and 204 ± 2 °C
CCCC[N+]1(C)CCCC1.F[B-](F)(F)F [1-butyl-1-methylpyrrolidinium tetrafluoroborate] | 152 ± 2 °C and 151 ± 2 °C
CC[N+]1(C)CCCC1.F[B-](F)(F)F [1-ethyl-1-methylpyrrolidinium tetrafluoroborate] | 66 ± 2 °C
